Reference: ChEMBL document CHEMBL1240403, “Penicillin-binding protein gene alterations in Streptococcus uberis isolates presenting decreased susceptibility to penicillin” (2010)
Values after ≈ are worked out from the molar mass of the structure shown.

Assays:
Streptococcus uberis [1] = test: Antimicrobial activity against Streptococcus uberis ATCC 9529 harboring PAP1A A227T/G386R, PBP2B N366I/T402I and PBP2X E381K/D524A/Q554E mutation after 39 passages assessed as inhibition of visible growth by broth macrodilution method; format: functional
Streptococcus uberis [2] = test: Antimicrobial activity against Streptococcus uberis ATCC 19436 harboring PAP1A A227T, PBP2B N366I/T402I and PBP2X E381K/Q554E mutation after 15 passages assessed as inhibition of visible growth by broth macrodilution method; format: functional
Streptococcus uberis [3] = test: Antimicrobial activity against Streptococcus uberis isolate 20568 harboring PAP1A G386R, PBP2B N366I/T402I/V570A/P575S and PBP2X E381K/Q554E mutation assessed as inhibition of visible growth after 24 hrs by broth macrodilution method; format: functional; details: isolate 20568, 24 h
Streptococcus uberis [4] = test: Antimicrobial activity against Streptococcus uberis ATCC 8749 harboring PAP1A A227T/G386R, PBP2B N366I/T402I and PBP2X E381K/D524A/Q554E mutation after 37 passages assessed as inhibition of visible growth broth macrodilution method; format: functional
Streptococcus uberis [5] = test: Antimicrobial activity against Streptococcus uberis ATCC 19436 harboring PAP1A A227T, PBP2B N366I/T402I and PBP2X E381K/D524A/Q554E mutation after 18 passages assessed as inhibition of visible growth by broth macrodilution method; format: functional
Streptococcus uberis [6] = test: Antimicrobial activity against Streptococcus uberis ATCC 9529 harboring PAP1A R273P, PBP2B N366I/T402I and PBP2X E381K/Q554E mutation after 28 passages assessed as inhibition of visible growth by broth macrodilution method; format: functional
Streptococcus uberis [7] = test: Antimicrobial activity against Streptococcus uberis isolate ALP 8144 harboring PBP2X E381K/Q554E mutation assessed as inhibition of visible growth after 24 hrs by broth macrodilution method; format: functional; details: isolate ALP 8144, 24 h
Streptococcus uberis [8] = test: Antimicrobial activity against Streptococcus uberis isolate ALP8092 harboring PAP1A G386R and PBP2X E381K/Q554E mutation assessed as inhibition of visible growth after 24 hrs by broth macrodilution method; format: functional; details: isolate ALP8092, 24 h
Streptococcus uberis [9] = test: Antimicrobial activity against Streptococcus uberis isolate 20592 harboring and PBP2X E381K/Q554E mutation assessed as inhibition of visible growth after 24 hrs by broth macrodilution method; format: functional; details: isolate 20592, 24 h
Streptococcus uberis [10] = test: Antimicrobial activity against Streptococcus uberis isolate 20618 harboring PAP1A G386R and PBP2X E381K/Q554E mutation assessed as inhibition of visible growth after 24 hrs by broth macrodilution method; format: functional; details: isolate 20618, 24 h
Streptococcus uberis [11] = test: Antimicrobial activity against Streptococcus uberis isolate 1.11 harboring PAP1A G386R, PBP2B T593A and PBP2X E381K/Q554E mutation assessed as inhibition of visible growth after 24 hrs by broth macrodilution method; details: isolate 1.11, 24 h
Streptococcus uberis [12] = test: Antimicrobial activity against Streptococcus uberis ATCC 19436 harboring PAP1A A227T/G386R, PBP2B N366I/T402I and PBP2X E381K/D524A/Q554E mutation after 30 passages assessed as inhibition of visible growth by broth macrodilution method; format: functional
Streptococcus uberis [13] = test: Antimicrobial activity against Streptococcus uberis isolate BL246 harboring PBP2B N366I/T402I and PBP2X E381K/Q554E mutation assessed as inhibition of visible growth after 24 hrs by broth macrodilution method; format: functional; details: isolate BL246, 24 h
Streptococcus uberis [14] = test: Antimicrobial activity against Streptococcus uberis ATCC 9529 harboring PBP2B N366I/T402I and PBP2X E381K/Q554E mutation assessed as inhibition of visible growth by broth macrodilution method; format: functional
Streptococcus uberis [15] = test: Antimicrobial activity against Streptococcus uberis ATCC 8749 harboring PBP2B N366I/T402I/V570A/P575S and PBP2X A492E mutation assessed as inhibition of visible growth by broth macrodilution method; format: functional
Streptococcus uberis [16] = test: Antimicrobial activity against Streptococcus uberis ATCC 8749 harboring PAP1A A227T/G386R, PBP2B N366I/T402I and PBP2X E381K/D524A/Q554E mutation after 28 passages assessed as inhibition of visible growth broth macrodilution method; format: functional
Streptococcus uberis [17] = test: Antimicrobial activity against Streptococcus uberis ATCC 9529 harboring PAP1A R273P, PBP2B N366I/T402I and PBP2X E381K/Q554E mutation after 11 passages assessed as inhibition of visible growth by broth macrodilution method; format: functional
Streptococcus uberis [18] = test: Antimicrobial activity against Streptococcus uberis ATCC 19436 assessed as inhibition of visible growth after 24 hrs by broth macrodilution method; format: functional; details: ATCC 19436, 24 h
Streptococcus uberis [19] = test: Antimicrobial activity against Streptococcus uberis ATCC 8749 harboring PAP1A R273H, PBP2B N366I/T402I and PBP2X E381K/Q554E mutation after 16 passages assessed as inhibition of visible growth by broth macrodilution method; format: functional

CC1(C)S[C@@H]2[C@H](NC(=O)Cc3ccccc3)C(=O)N2[C@H]1C(=O)O [PENICILLIN G] was tested, and the MIC (Streptococcus uberis [1]) was 2 µg/mL (≈ 5.98 µM), the MIC (Streptococcus uberis [2]) was 0.5 µg/mL (≈ 1.5 µM) and the MIC (Streptococcus uberis [3]) was 0.5 µg/mL (≈ 1.5 µM). The MIC (Streptococcus uberis [4]) was 2 µg/mL (≈ 5.98 µM), the MIC (Streptococcus uberis [5]) was 1 µg/mL (≈ 2.99 µM) and the MIC (Streptococcus uberis [6]) was 1 µg/mL (≈ 2.99 µM). The MIC (Streptococcus uberis [7]) was 0.25 µg/mL (≈ 0.748 µM), the MIC (Streptococcus uberis [8]) was 0.25 µg/mL (≈ 0.748 µM) and the MIC (Streptococcus uberis [9]) was 0.5 µg/mL (≈ 1.5 µM). The MIC (Streptococcus uberis [10]) was 0.25 µg/mL (≈ 0.748 µM), the MIC (Streptococcus uberis [11]) was 0.25 µg/mL (≈ 0.748 µM) and the MIC (Streptococcus uberis [12]) was 2 µg/mL (≈ 5.98 µM). For the same compound, the MIC (Streptococcus uberis [13]) was 0.25 µg/mL (≈ 0.748 µM), the MIC (Streptococcus uberis [14]) was 0.128 µg/mL (≈ 0.383 µM) and the MIC (Streptococcus uberis [15]) was 0.016 µg/mL (≈ 0.0478 µM). For the same compound, the MIC (Streptococcus uberis [16]) was 1 µg/mL (≈ 2.99 µM), the MIC (Streptococcus uberis [17]) was 0.5 µg/mL (≈ 1.5 µM) and the MIC (Streptococcus uberis [18]) was 0.032 µg/mL (≈ 0.0957 µM). The MIC (Streptococcus uberis [19]) was 0.5 µg/mL (≈ 1.5 µM).
